From US20240425497A1, “Cbl-b Inhibitors and Methods of Use Thereof” (ARCUS BIOSCIENCES, INC., priority 2023, published 2024)

Tests used:
[1] = target: Cbl-b (Homo sapiens (Human), UniProt Q13191); test: Cbl-b probe displacement HTRF binding assay; settings: 0.4 nM biotinylated Cbl-b, 150 nM BODIPY probe
Method: The affinity with which compounds of the present disclosure bind to Cbl-b was assessed using probe displacement homologous time resolved fluorescence (HTRF) assays. The assays used a BODIPY™ conjugated probe (Example 54 from WO 2020264398) and biotinylated Cbl-b. The assays were performed in assay buffer consisting of 20 mM Hepes, 150 mM NaCl, 0.01% Triton X-100, 0.5 mM TCEP, 0.01% BSA. On the day of the assay, a 20 point, 1:2 master serial dilution of each compound was prepared in DMSO to span a final concentration range of 10 μM to 0 nM. Two hundred nanoliters of diluted compound was added to each well of a 384-well plate. Fifteen microliters of biotinylated-Cbl-b resuspended in assay buffer were added to each well and the plate incubated for 60 minutes at room temperature prior to addition of 5 μL of BODIPY™ probe in assay buffer. Final assay conditions included 0.4 nM of Cbl-b and 150 nM of BODIPY™ probe. After a further 15 minutes of incubation at room temperature, 5 μl of Streptavidin-Terbium cryptate reagent at 5-fold final concentration was added to each well of the 384-well plate. Binding of a probe to Cbl-b results in an increase of HTRF signal. HTRF signal was measured by Envision plate reader, while competition of a compound of the present disclosure with probe results in a decrease of signal. Percentage maximum activity in each test well was calculated based on DMSO (maximum activity, 0% displacement) and no protein control wells (baseline activity, 100% displacement). Binding affinity was determined from a dose response curve fitted using a standard four parameter fit equation. See Table 3 for data for compounds (Cbl-b Binding (IC50)).

[2] = test system: Jurkat cells; test: IL-2 secretion assay in CD3/CD28-activated Jurkat cells (AlphaLISA); format: cell-based, human; settings: CD3/CD28 activation, 24 h
Method: Certain compounds were also evaluated in an IL-2 secretion assay. On the day of the assay, a 16 point, 1:2 master serial dilution of each compound was prepared in Opti-MEM to span a final concentration range of […]. Assays were set up in CORNING® tissue culture-treated 384-well microplates containing 60 nL of each dilution. Jurkat cells grown in RPMI-1640 supplemented with 10% FBS, 1% Glutamax, and 1% Pen/Strep were collected, resuspended in Opti-MEM. 50,000 cells/well and added to the compound plates. After a short spin (1200 rpm for 1 min), the plates were incubated at 37° C. for 1 hour. The cells were activated by adding 15 μL of IMMUNOCULT™ Human CD3/CD28 T Cell Activator (STEMCELL Technologies) diluted in Opti-MEM. After 24 h of incubation at 37° C., aliquots of culture supernatants were transferred to OptiPlate-384 (PerkinElmer) microplates. The level of JIL-2 secretion in the supernatants was then determined using the IL-2 (human) AiphaLISA Detection Kit (PerkinElmer) according to the manufacturer's recommendations. The AiphaLISA signal was measured using an EnVision plate reader (PerkinElmer). EC50 values were determined by fitting the data to a standard 4-parameter logistic equation. See Table 3 for data for select compounds (IL-2 Secretion (EC50)).

Cbl-b, sequence (Q13191 whole entry, species assumed): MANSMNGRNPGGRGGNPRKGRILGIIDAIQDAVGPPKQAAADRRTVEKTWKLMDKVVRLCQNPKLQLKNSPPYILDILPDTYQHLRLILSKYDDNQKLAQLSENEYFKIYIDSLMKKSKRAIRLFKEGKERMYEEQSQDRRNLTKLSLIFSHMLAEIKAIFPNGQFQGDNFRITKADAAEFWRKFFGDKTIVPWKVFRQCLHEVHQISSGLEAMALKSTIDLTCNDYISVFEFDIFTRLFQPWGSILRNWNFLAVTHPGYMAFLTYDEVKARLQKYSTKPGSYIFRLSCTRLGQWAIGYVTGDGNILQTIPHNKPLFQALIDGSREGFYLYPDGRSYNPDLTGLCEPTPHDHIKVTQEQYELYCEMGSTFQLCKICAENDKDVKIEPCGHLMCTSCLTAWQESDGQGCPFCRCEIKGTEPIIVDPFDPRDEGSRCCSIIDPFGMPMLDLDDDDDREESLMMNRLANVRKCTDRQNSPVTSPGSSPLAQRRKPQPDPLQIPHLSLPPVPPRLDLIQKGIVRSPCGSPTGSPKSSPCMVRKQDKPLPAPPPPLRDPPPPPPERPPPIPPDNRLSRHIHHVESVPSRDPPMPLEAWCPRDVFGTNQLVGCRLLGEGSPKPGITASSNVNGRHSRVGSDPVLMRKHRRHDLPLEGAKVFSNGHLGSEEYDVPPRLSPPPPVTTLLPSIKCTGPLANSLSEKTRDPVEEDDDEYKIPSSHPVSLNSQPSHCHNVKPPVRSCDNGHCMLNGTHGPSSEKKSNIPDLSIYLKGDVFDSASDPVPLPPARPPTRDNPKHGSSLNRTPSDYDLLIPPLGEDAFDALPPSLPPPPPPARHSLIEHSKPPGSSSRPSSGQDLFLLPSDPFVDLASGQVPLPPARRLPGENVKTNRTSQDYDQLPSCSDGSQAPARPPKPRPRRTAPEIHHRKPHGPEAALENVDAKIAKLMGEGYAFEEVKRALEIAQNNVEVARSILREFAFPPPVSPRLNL

Row | Compound | IC50 [1] [nM] | EC50 ([2]; Homo sapiens) [nM] | EC50 [2] [nM]
1 | O=C(c1cc(F)ccc1-c1cc(C2CC2)nc(-n2cc(C(F)(F)F)c3cc(C4COCCN4)[nH]c3c2=O)c1)N1CC(F)C1 (racemic) [Example 55, 6-[6-cyclopropyl-4-[4-fluoro-2-(3-fluoroazetidine-1-carbonyl)phenyl]pyridin-2-yl]-2-morpholin-3-yl-4-(trifluoromethyl)-1H-pyrrolo[2,3-c]pyridin-7-one] | < 100 | 100 to 1000 | –
2 | CN1CCOCC1c1cc2c(C(F)(F)F)cn(-c3cc(-c4ccc(F)cc4C(=O)N4CC(F)C4)cc(C4CC4)n3)c(=O)c2[nH]1 (racemic) [Example 56, 6-[6-cyclopropyl-4-[4-fluoro-2-(3-fluoroazetidine-1-carbonyl)phenyl]pyridin-2-yl]-2-(4-methylmorpholin-3-yl)-4-(trifluoromethyl)-1H-pyrrolo[2,3-c]pyridin-7-one] | < 100 | 100 to 1000 | –
3 | C[C@H]1CCCN(Cc2cc3c(C4CC4)cn(-c4cc(-c5ccc(F)cc5C(=O)N(C)C)cc(C5CC5)n4)c(=O)c3[nH]2)C1 [Example 1, 2-[2-cyclopropyl-6-[4-cyclopropyl-2-[[(3S)-3-methylpiperidin-1-yl]methyl]-7-oxo-1H-pyrrolo[2,3-c]pyridin-6-yl]pyridin-4-yl]-5-fluoro-N,N-dimethylbenzamide] | < 100 | < 100 | –
4 | CCOCCNC(=O)c1cc(F)ccc1-c1cc(C2CC2)nc(-n2cc(C3CC3)c3cc(CN4CCC[C@H](C)C4)[nH]c3c2=O)c1 [Example 2, 2-[2-cyclopropyl-6-[4-cyclopropyl-2-[[(3S)-3-methylpiperidin-1-yl]methyl]-7-oxo-1H-pyrrolo[2,3-c]pyridin-6-yl]pyridin-4-yl]-N-(2-ethoxyethyl)-5-fluorobenzamide] | 100 to 1000 | 1000 to 5000 | –
5 | C[C@H]1CCCN(Cc2cc3c(C4CC4)cn(-c4cc(-c5ccc(F)cc5C(=O)N5CCOCC5)cc(C5CC5)n4)c(=O)c3[nH]2)C1 [Example 3, 2-{[(S)-3-methyl-1-piperidyl]methyl}-4-cyclopropyl-6-[6-cyclopropyl-4-(4-fluoro-2-morpholinocarbonylphenyl)-2-pyridyl]-1,6-dihydro-1,6-diaza-7-indenone] | < 100 | 100 to 1000 | –
6 | C[C@H]1CCCN(Cc2cc3c(C4CC4)cn(-c4cc(-c5ccc(F)cc5C(=O)N5CCCC5)cc(C5CC5)n4)c(=O)c3[nH]2)C1 [Example 4, 2-{[(S)-3-methyl-1-piperidyl]methyl}-4-cyclopropyl-6-(6-cyclopropyl-4-{4-fluoro-2-[(1-pyrrolidinyl)carbonyl]phenyl}-2-pyridyl)-1,6-dihydro-1,6-diaza-7-indenone] | < 100 | 100 to 1000 | –
7 | CCN(CC)C(=O)c1cc(F)ccc1-c1cc(C2CC2)nc(-n2cc(C3CC3)c3cc(CN4CCC[C@H](C)C4)[nH]c3c2=O)c1 [Example 5, N,N-diethyl2-[2-(2-{[(S)-3-methyl-1-piperidyl]methyl}-4-cyclopropyl-7-oxo-1,6-dihydro-1,6-diaza-6-indenyl)-6-cyclopropyl-4-pyridyl]-5-fluorobenzamide] | < 100 | 100 to 1000 | –
8 | CNC(=O)c1cc(F)ccc1-c1cc(C2CC2)nc(-n2cc(C3CC3)c3cc(CN4CCC[C@H](C)C4)[nH]c3c2=O)c1 [Example 6, N-methyl2-[2-(2-{[(S)-3-methyl-1-piperidyl]methyl}-4-cyclopropyl-7-oxo-1,6-dihydro-1,6-diaza-6-indenyl)-6-cyclopropyl-4-pyridyl]-5-fluorobenzamide] | < 100 | 100 to 1000 | –
9 | C[C@H]1CCCN(Cc2cc3c(C4CC4)cn(-c4cc(-c5ccc(F)cc5C(=O)N5CCC5)cc(C5CC5)n4)c(=O)c3[nH]2)C1 [Example 7, 2-{[(S)-3-methyl-1-piperidyl]methyl}-6-(4-{2-[(1-azetidinyl)carbonyl]-4-fluorophenyl}-6-cyclopropyl-2-pyridyl)-4-cyclopropyl-1,6-dihydro-1,6-diaza-7-indenone] | < 100 | < 100 | –
10 | C[C@H]1CCCN(Cc2cc3c(C4CC4)cn(-c4cc(-c5ccc(F)cc5C(=O)N(C)c5ccccc5)cc(C5CC5)n4)c(=O)c3[nH]2)C1 [Example 8, N-methyl-N-phenyl-2-[2-(2-{[(S)-3-methyl-1-piperidyl]methyl}-4-cyclopropyl-7-oxo-1,6-dihydro-1,6-diaza-6-indenyl)-6-cyclopropyl-4-pyridyl]-5-fluorobenzamide] | 100 to 1000 | > 5000 | –
11 | CC1CCCN1C(=O)c1cc(F)ccc1-c1cc(C2CC2)nc(-n2cc(C3CC3)c3cc(CN4CCC[C@H](C)C4)[nH]c3c2=O)c1 (stereo partly drawn) [Example 9, 2-{[(S)-3-methyl-1-piperidyl]methyl}-4-cyclopropyl-6-(6-cyclopropyl-4-{4-fluoro-2-[(2-methyl-1-pyrrolidinyl)carbonyl]phenyl}-2-pyridyl)-1,6-dihydro-1,6-diaza-7-indenone] | < 100 | > 5000 | –
12 | C[C@H]1CCCN(Cc2cc3c(C4CC4)cn(-c4cc(-c5ccc(F)cc5C(=O)N5CC(F)C5)cc(C5CC5)n4)c(=O)c3[nH]2)C1 [Example 10, 2-{[(S)-3-methyl-1-piperidyl]methyl}-4-cyclopropyl-6-(6-cyclopropyl-4-{4-fluoro-2-[(3-fluoro-1-azetidinyl)carbonyl]phenyl}-2-pyridyl)-1,6-dihydro-1,6-diaza-7-indenone] | < 100 | < 100 | –
13 | COC1CN(C(=O)c2cc(F)ccc2-c2cc(C3CC3)nc(-n3cc(C4CC4)c4cc(CN5CCC[C@H](C)C5)[nH]c4c3=O)c2)C1 [Example 11, 2-{[(S)-3-methyl-1-piperidyl]methyl}-4-cyclopropyl-6-(6-cyclopropyl-4-{4-fluoro-2-[(3-methoxy-1-azetidinyl)carbonyl]phenyl}-2-pyridyl)-1,6-dihydro-1,6-diaza-7-indenone] | < 100 | 100 to 1000 | –
14 | C[C@H]1CCCN(Cc2cc3c(C4CC4)cn(-c4cc(-c5ccc(F)cc5C(=O)NCC(F)(F)F)cc(C5CC5)n4)c(=O)c3[nH]2)C1 [Example 12, N-2,2,2-trifluoroethyl2-[2-(2-{[(S)-3-methyl-1-piperidyl]methyl}-4-cyclopropyl-7-oxo-1,6-dihydro-1,6-diaza-6-indenyl)-6-cyclopropyl-4-pyridyl]-5-fluorobenzamide] | 100 to 1000 | 100 to 1000 | –
15 | CCN(C)C(=O)c1cc(F)ccc1-c1cc(C2CC2)nc(-n2cc(C3CC3)c3cc(CN4CCC[C@H](C)C4)[nH]c3c2=O)c1 [Example 13, N-ethyl-N-methyl2-[2-(2-{[(S)-3-methyl-1-piperidyl]methyl}-4-cyclopropyl-7-oxo-1,6-dihydro-1,6-diaza-6-indenyl)-6-cyclopropyl-4-pyridyl]-5-fluorobenzamide] | < 100 | 100 to 1000 | –
16 | C[C@H]1CCCN(Cc2cc3c(C4CC4)cn(-c4cc(-c5ccc(F)cc5C(=O)N5CC(F)(F)C5)cc(C5CC5)n4)c(=O)c3[nH]2)C1 [Example 14, 2-{[(S)-3-methyl-1-piperidyl]methyl}-4-cyclopropyl-6-(6-cyclopropyl-4-{2-[(3,3-difluoro-1-azetidinyl)carbonyl]-4-fluorophenyl}-2-pyridyl)-1,6-dihydro-1,6-diaza-7-indenone] | < 100 | < 100 | –
17 | CO[C@@H](C)CN(C)Cc1cc2ncn(-c3cc(-c4ccc(F)cc4C(=O)N4CC(F)(F)C4)cc(C4CC4)n3)c(=O)c2[nH]1 [Example 40, 3-[6-cyclopropyl-4-[2-(3,3-difluoroazetidine-1-carbonyl)-4-fluorophenyl]pyridin-2-yl]-6-[[[(2S)-2-methoxypropyl]-methylamino]methyl]-5H-pyrrolo[3,2-d]pyrimidin-4-one] | < 100 | – | –
18 | COCCNCc1cc2ncn(-c3cc(-c4ccc(F)cc4C(=O)N4CC(F)(F)C4)cc(C4CC4)c3)c(=O)c2[nH]1 [Example 42, 6-{5-cyclopropyl-2′-[(3,3-difluoro-1-azetidinyl)carbonyl]-4′-fluoro-3-biphenylyl}-2-[(2-methoxyethylamino)methyl]-1,6-dihydro-1,4,6-triaza-7-indenone] | – | – | < 100
